The IC50 is the concentration that gives 50% inhibition. The IC90 is the concentration needed for an effect of 90%.

Starred links: 1 amine or outer side, 2 acyl side, 3 side chain; linkers in the order of their positions; H or OH if unused. Positions of bridges follow the written chain, without caps; N, C: chain ends. Non-standard residues stand in square brackets, D forms with d. Residues, ends and D or L forms follow the SMILES beside them. *: point of attachment. X1 = CC[C@H](C)[C@@H](N[*:1])[C@@H](O)CC(=O)O[C@H](C(=O)[C@H](C)C(=O)[*:2])C(C)C; NMeY = CN[C@@H](Cc1ccc(O)cc1)C(=O)O; dNMeL = CN[C@H](CC(C)C)C(=O)O; Pyruvoyl = CC(=O)C(=O)*

These results are taken from article PMC8761492 (Life Science Alliance, 2022).

Experiment in all cases: microbe, parasite or virus in culture
What all share (assay type): cell-based
What all share (conditions): Severe acute respiratory syndrome coronavirus 2, HeLa-ACE2, 48 h

For test [1], the system named is SARS-CoV-2 β (B.1.351).
Test [2] has as its system SARS-CoV-2 α (B.1.1.7).
Test [3] has as its system SARS-CoV-2 μ (B.1.621).
Test [4] relates to SARS-CoV-2 ο (B.1.1.529).
Test [5] has as its system SARS-CoV-2 δ (B.1.617.2).

With `CC[C@H](C)[C@H]1NC(=O)[C@@H](NC(=O)[C@@H](CC(C)C)N(C)C(=O)[C@@H]2CCCN2C(=O)C(C)=O)[C@@H](C)OC(=O)[C@H](Cc2ccc(OC)cc2)N(C)C(=O)[C@@H]2CCCN2C(=O)[C@H](CC(C)C)NC(=O)[C@@H](C)C(=O)[C@H](C(C)C)OC(=O)C[C@@H]1O` [Plitidepsin] (Pyruvoyl-P[dNMeL]T[X1]LP[NMeY](Me); ester 3-C), the IC50 was found to be 77 pM in test [1] (read-out: Antiviral IC50); 52 pM in test [2] (read-out: Antiviral IC50); 266 pM in test [3] (read-out: Antiviral IC50); 291 pM in test [4] (read-out: Antiviral IC50); 89 pM in test [5] (read-out: Antiviral IC50). Further, the IC90 in test [1] (read-out: Antiviral IC90) was determined as 419 pM; in test [2] (read-out: Antiviral IC90) it was 161 pM; in test [3] (read-out: Antiviral IC90), 1030 pM; in test [4] (read-out: Antiviral IC90), 887 pM; in test [5] (read-out: Antiviral IC90) it was 511 pM.
